Test results from ChEMBL document CHEMBL5029197, “Synthesis and Metabolism of BTN3A1 Ligands: Studies on Diene Modifications to the Phosphoantigen Scaffold” (ACS Med Chem Lett, 2022).
Activity calls are given as the source filed them. The rule behind the calls is not given here.

Experiments:
[1] = (§1) Induction of IFN-gamma production in human Vgamma9Vdelta2-T cells incubated for 240 mins with compound-loaded K562 cells followed by compound washout and measured after 20 hrs by ELISA; type: functional, cell-based; conditions: Vgamma9Vdelta2 T cell
[2] = (§2) Induction of IFN-gamma production in human Vgamma9Vdelta2-T cells incubated for 15 mins with compound-loaded K562 cells followed by compound washout and measured after 20 hrs by ELISA; type: functional, cell-based; conditions: Vgamma9Vdelta2 T cell
[3] = Stability of compound in human plasma assessed as parent compound remaining at 100 uM measured after 2 hrs by LC-MS analysis; type: ADME, cell-free; conditions: for remaining at 2 h, 100 µM: read-out: Stability; for Stability: 2 h, 100 µM
[4] = (§3) Induction of cell proliferation in human Vgamma9Vdelta2-T cells stimulated with human PBMC for 3 days followed by compound washout and supplemented with IL2 every 3 days for 11 days by flow cytometry analysis; type: functional, cell-based
K562 = test: Cytotoxicity against human K562 cells assessed as reduction in cell viability measured after 72 hrs by colorimetric assay; type: cell-based; conditions: k562, 72 h
[5] = (§4) Induction of IFN-gamma production in human Vgamma9Vdelta2-T cells incubated for 60 mins with compound-loaded K562 cells followed by compound washout and measured after 20 hrs by ELISA; type: functional, cell-based; conditions: Vgamma9Vdelta2 T cell
[6] = (§5) Induction of IFN-gamma production in human Vgamma9Vdelta2-T cells incubated for 4 mins with compound-loaded K562 cells followed by compound washout and measured after 20 hrs by ELISA; type: functional, cell-based; conditions: Vgamma9Vdelta2 T cell
[7] = Drug metabolism in human K562 cells assessed as monoacid methyl ester metabolite formation at 100 uM incubated for 1 hr by LC-MS analysis; type: ADME, cell-based; conditions: k562, 1 h
[8] = Stability of compound in human plasma assessed as parent compound remaining at 100 uM measured after 24 hrs by LC-MS analysis; type: ADME, cell-free; conditions: for remaining at 24 h, 100 µM: read-out: Stability; for Stability: 24 h, 100 µM
[9] = Drug metabolism in human K562 cells assessed as free phosphonic diacid metabolite formation at 100 uM incubated for 1 hr by LC-MS analysis; type: ADME, cell-based; conditions: k562, 1 h
[10] = molecular target: Butyrophilin subfamily 3 member A1 (Homo sapiens) (UniProt O00481); test: Displacement of GDP-BODIPY probe from BTN3A1 full intracellular domain (unknown origin) at […] measured after 60 mins by fluorescence polarization assay
Chain of Butyrophilin subfamily 3 member A1 (Homo sapiens) (O00481 30-513 limits assumed): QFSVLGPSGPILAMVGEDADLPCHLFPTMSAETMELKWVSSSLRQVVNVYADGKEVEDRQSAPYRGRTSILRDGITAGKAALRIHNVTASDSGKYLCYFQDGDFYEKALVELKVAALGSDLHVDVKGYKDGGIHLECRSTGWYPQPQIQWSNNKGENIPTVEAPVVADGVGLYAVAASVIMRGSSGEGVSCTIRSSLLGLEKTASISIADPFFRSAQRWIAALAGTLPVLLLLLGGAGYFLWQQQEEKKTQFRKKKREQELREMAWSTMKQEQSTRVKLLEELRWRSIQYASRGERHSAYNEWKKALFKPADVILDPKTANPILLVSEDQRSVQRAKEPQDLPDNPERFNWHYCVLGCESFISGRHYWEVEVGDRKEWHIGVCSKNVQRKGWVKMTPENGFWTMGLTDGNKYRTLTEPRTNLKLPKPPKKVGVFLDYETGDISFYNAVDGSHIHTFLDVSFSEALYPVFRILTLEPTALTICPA

Vgamma9Vdelta2-T cell [11] = test: as §1; type: functional, cell-based
Vgamma9Vdelta2-T cell [12] = test: as §2; type: functional, cell-based
Vgamma9Vdelta2-T cell [13] = test: as §3; type: functional, cell-based; conditions: time 3.0 day
Vgamma9Vdelta2-T cell [14] = test: as §4; type: functional, cell-based
Vgamma9Vdelta2-T cell [15] = test: as §5; type: functional, cell-based

SMILES	EC50 [1] [µM]	EC50 [2] [µM]	remaining at 2 h, 100 µM [3] [%]	EC50 [4] [µM]	Activity (K562) [µM]	EC50 [5] [µM]	EC50 [6] [µM]	Drug metabolism [7]	remaining at 24 h, 100 µM [8] [%]	Drug metabolism [9]	Stability [8]	Activity [10]	Activity (Vgamma9Vdelta2-T cell [11])	Activity (Vgamma9Vdelta2-T cell [12])	Activity (Vgamma9Vdelta2-T cell [13])	Activity (Vgamma9Vdelta2-T cell [14])	Activity (Vgamma9Vdelta2-T cell [15])	Stability [3]
COP(=O)(/C=C/C=C(C)C)OCOC(=O)C(C)(C)C (configuration not stated)	11	98	62	0.13	20	37	> 100	Metabolite_Detected	4	–	–	–	–	–	–	–	–	–
CC(C)=C/C=C/P(=O)(OCOC(=O)C(C)(C)C)OCOC(=O)C(C)(C)C	18	> 100	6	0.29	> 100	52	> 100	–	–	Metabolite_Detected	Unstable	–	–	–	–	–	–	–
CC(C)=C/C=C/P(=O)(OCOC(=O)C(C)(C)C)Oc1ccccc1 (configuration not stated)	9.1	> 100	48	0.75	100	29	> 100	–	16	Metabolite_Detected	–	–	–	–	–	–	–	–
C/C(=C\CCP(=O)(O)O)CO	–	–	–	–	–	–	–	–	–	–	–	inactive	–	–	–	–	–	–
C/C(=C\C=C\P(=O)(O)O)CO	–	–	–	15	> 100	–	–	–	–	–	–	Active	–	–	–	–	–	–
CC(C)=C/C=C/P(=O)(Oc1ccccc1)Oc1ccccc1	–	–	89	–	> 100	–	–	Metabolite_Notdetected	73	–	–	–	inactive	inactive	inactive	inactive	inactive	–
C/C(=C\CCP(=O)(OCOC(=O)C(C)(C)C)OCOC(=O)C(C)(C)C)CO	0.024	0.043	–	–	> 100	0.03	–	–	–	–	Unstable	–	–	–	–	–	–	Unstable
COC(=O)[C@H](C)NP(=O)(/C=C/C=C(C)C)Oc1ccccc1 (some centres not stated)	75	> 100	69	11	> 100	> 100	> 100	–	63	Metabolite_Detected	–	–	–	–	–	–	–	–
CC(C)=C/C=C/P(=O)([O-])[O-].[Na+].[Na+]	–	–	–	> 100	> 100	–	–	–	–	–	–	Active	–	–	–	–	–	–
CC(=O)OC/C(C)=C/C=C/P(=O)(OCOC(=O)C(C)(C)C)OCOC(=O)C(C)(C)C	38	> 100	–	60	> 100	> 100	> 100	–	–	Metabolite_Detected	Unstable	–	–	–	–	–	–	Unstable
